Source: US12350249B2, “Efficient anti-bacterial hydroxy acid ester oligomer” (NANJING BIOSERICA ERA BIOLOGICAL TECHNOLOGY CO., LTD., priority 2020, dated 2025)
Values after ≈ are worked out from the molar mass of the structure shown.

What was measured:
[1] = tested on: Escherichia coli ATCC25922; assay: Minimum inhibitory concentration MIC (agar method), Table 3; format: cell-based
Method: (§1) Anti-bacterial tests and c log P theoretical calculation are performed on the products of the embodiment 2 and the embodiment 3, as shown in Table 3. [table]

[2] = tested on: Escherichia coli ATCC25922; assay: Minimum Inhibitory Concentration Test (Nutrition Broth Method), Table 3; format: cell-based
Method: as §1

[3] = tested on: Escherichia coli ATCC 25922; assay: Anti-bacterial experiment, GB/T 20944.3-2008 shake flask method; format: cell-based
Method: Adding 10 g of 3-hydroxybutyrate ethyl ester and 0.01 g of zinc acetate (i.e. a mass ratio of 3-hydroxybutyrate ethyl ester is 0.1%) in a three-necked flask with mechanical stirring, a thermometer and a distillation device, wherein a stirring speed is approximately 150 revolutions; under an environment with a trace of nitrogen, increasing a temperature to 150° C. with a speed of 0.5-3° C./min to react for 1 hour, then stopping reaction to obtain a 3-HB oligomer; detecting a degree of polymerization by a mass spectrometry, wherein an anti-bacterial experiment refers to GB/T 20944.3-2008 Textiles-Evaluation for anti-bacterial activity-Part 3: Shake flask method, a strain used is Escherichia coli ATCC 25922.

[4] = tested on: C. albicans; details: disclosed in CN110452115A; cited from earlier work
[5] = tested on: S. aureus; details: disclosed in CN110452115A; cited from earlier work
[6] = tested on: K. pneumoniae; details: disclosed in CN110452115A; cited from earlier work

COC(=O)C[C@@H](C)O [Embodiment 2-1, R-(−)-3-hydroxybutyric methyl ester]
Minimum inhibitory concentration MIC (agar method) [1]: 10% | MIC [2]: 62.5 µg/mL (≈ 529 µM)

CCOC(=O)C[C@@H](C)O [Embodiment 2-2, R-(−)-3-hydroxybutyrate ethyl ester]
Minimum inhibitory concentration MIC (agar method) [1]: 5% | MIC [2]: 31.2 µg/mL (≈ 236 µM)

CCCOC(=O)C[C@@H](C)O [Embodiment 2-3, R-(−)-3-hydroxybutyrate propyl ester]
Minimum inhibitory concentration MIC (agar method) [1]: 2% | MIC [2]: 15.6 µg/mL (≈ 107 µM)

CCCCOC(=O)C[C@@H](C)O [Embodiment 2-4, R-(−)-3-hydroxybutyrate butyl ester]
Minimum inhibitory concentration MIC (agar method) [1]: 1% | MIC [2]: 7.81 µg/mL (≈ 48.7 µM)

CCCCCOC(=O)C[C@@H](C)O [Embodiment 2-5, R-(−)-3-hydroxybutyrate pentyl ester]
Minimum inhibitory concentration MIC (agar method) [1]: 0.5% | MIC [2]: 3.91 µg/mL (≈ 22.4 µM)

CCCCCCOC(=O)C[C@@H](C)O [Embodiment 2-6, R-(−)-3-hydroxybutyrate hexyl ester]
Minimum inhibitory concentration MIC (agar method) [1]: 0.25% | MIC [2]: 1.95 µg/mL (≈ 10.4 µM)

CCCCCCCOC(=O)C[C@@H](C)O [Embodiment 2-7, R-(−)-3-hydroxybutyrate heptyl ester]
Minimum inhibitory concentration MIC (agar method) [1]: >15% | MIC [2]: 31.2 µg/mL (≈ 154 µM)

CCCCCCCCOC(=O)C[C@@H](C)O [Embodiment 2-8, R-(−)-3-hydroxybutyrate octyl ester]
Minimum inhibitory concentration MIC (agar method) [1]: >20% | MIC [2]: 31.2 µg/mL (≈ 144 µM)

CCCCCCOC(=O)[C@@H](C)O [Embodiment 3-1, R-(−)-lactate hexyl ester]
Minimum inhibitory concentration MIC (agar method) [1]: 0.25% | MIC [2]: 1.95 µg/mL (≈ 11.2 µM)

CCOC(=O)[C@@H](C)O [Embodiment 3-2, R-(−)-lactate ethyl ester]
Minimum inhibitory concentration MIC (agar method) [1]: 5.25% | MIC [2]: 35.5 µg/mL (≈ 301 µM)

CCCCCCCOC(=O)[C@@H](C)O [Embodiment 3-3, R-(−)-lactate heptyl ester]
Minimum inhibitory concentration MIC (agar method) [1]: 4.38% | MIC [2]: 28.6 µg/mL (≈ 152 µM)

R-(−)-3-hydroxybutyrate ethyl ester oligomer [Embodiment 1-3]
Anti-bacterial rate (%) [3]: 99%

poly-3-hydroxybutyrate oligomer
minimum inhibitory concentration (MIC) [4]: 25 mg/mL | minimum inhibitory concentration (MIC) [5]: 6.25 mg/mL | minimum inhibitory concentration (MIC) [6]: 12.5 mg/mL
